According to ChEMBL document CHEMBL5143585, “Discovery and characterization of benzyloxy piperidine based dopamine 4 receptor antagonists” (Bioorg Med Chem Lett, 2022):

Target: T1, D(4) dopamine receptor (Homo sapiens) (UniProt P21917)
T1 sequence (whole entry): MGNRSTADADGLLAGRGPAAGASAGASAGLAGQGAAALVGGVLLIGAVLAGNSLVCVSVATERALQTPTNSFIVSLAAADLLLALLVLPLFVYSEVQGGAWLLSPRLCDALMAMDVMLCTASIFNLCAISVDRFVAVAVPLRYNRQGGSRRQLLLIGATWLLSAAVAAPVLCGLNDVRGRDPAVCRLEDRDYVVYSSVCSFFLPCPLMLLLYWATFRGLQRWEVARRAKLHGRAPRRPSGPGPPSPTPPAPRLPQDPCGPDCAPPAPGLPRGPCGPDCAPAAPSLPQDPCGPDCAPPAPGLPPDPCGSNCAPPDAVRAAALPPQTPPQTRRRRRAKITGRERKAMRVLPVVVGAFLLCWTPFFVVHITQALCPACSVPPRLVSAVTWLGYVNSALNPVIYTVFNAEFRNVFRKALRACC
Assay: Displacement of [3H]N-methylspiperone from human D4 receptor expressed in HEK293 cell membrane at 10 uM by competitive inhibition based analysis
Assay type: cell membranes
Details: not given

inhibition [%] | SMILES
29.2 | Cc1ccccc1CN1CCC[C@H](OCc2cccc(F)c2)C1
33.1 | Cc1ccc(CO[C@H]2CCCN(Cc3cccc(F)c3)C2)cc1
-1.6 | Cc1ccccc1CO[C@H]1CCCN(Cc2ccc(Cl)cc2F)C1

Same assay, conditions: filed as antagonist

inhibition [%] | SMILES
44.9 | Fc1cccc(CO[C@H]2CCCN(Cc3ccc(Cl)cc3F)C2)c1
40.4 | FC(F)(F)Oc1cccc(CO[C@H]2CCCN(Cc3ncc4ccccn34)C2)c1

Continued, molecule first:

SMILES | inhibition [%]
Cc1ccccc1CO[C@H]1CCCN(Cc2ccc(Cl)c(Cl)c2)C1 | 43.9
COc1ccc(CO[C@H]2CCCN(Cc3cccc(C)c3)C2)cc1F | 45.8

System: not listed separately
Assay: Protein binding in mouse plasma assessed as unbound fraction
Assay type: ADME, cell-free
Details: not given

Fu [%] | SMILES
3.6 | Cc1nc(CN2CCC(OCc3cccc(C(F)(F)F)c3)CC2)c2ccccn12
16.1 | FC(F)(F)c1cccc(COC2CCN(Cc3ccc4[nH]cnc4c3)CC2)c1
5.7 | Cn1ncc2cc(CN3CCC(OCc4cccc(C(F)(F)F)c4)CC3)ccc21

Target: T2, D(3) dopamine receptor (Homo sapiens, UniProt P35462)
T2 sequence (P35462 whole entry): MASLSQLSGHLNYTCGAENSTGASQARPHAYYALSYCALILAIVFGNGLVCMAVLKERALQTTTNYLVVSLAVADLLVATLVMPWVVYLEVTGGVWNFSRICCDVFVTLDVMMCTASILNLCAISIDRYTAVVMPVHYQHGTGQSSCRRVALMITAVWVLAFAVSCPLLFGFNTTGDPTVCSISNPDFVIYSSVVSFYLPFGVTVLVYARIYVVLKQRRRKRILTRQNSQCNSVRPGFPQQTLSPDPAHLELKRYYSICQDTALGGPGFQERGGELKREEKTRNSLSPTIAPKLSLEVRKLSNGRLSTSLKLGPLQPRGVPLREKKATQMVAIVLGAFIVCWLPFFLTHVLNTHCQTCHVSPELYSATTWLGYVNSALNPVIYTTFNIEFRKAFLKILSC
Assay: Displacement of [3H]N-methylspiperone from human D3 receptor expressed in HEK293 cell membrane by competitive inhibition based analysis
Assay type: cell membranes
Details: not given

Ki [nM] | SMILES
2360 | Cc1c(Cl)cccc1NC(=O)CN1CCC(OCc2ccc(Cl)c(F)c2)CC1
896 | Cc1nc(CN2CCC(OCc3cccc(C(F)(F)F)c3)CC2)c2ccccn12
2120 | Cc1c(Cl)cccc1NC(=O)CN1CCC(OCc2cccc(C(F)(F)F)c2)CC1
948 | FC(F)(F)c1cccc(COC2CCN(Cc3ccc4[nH]cnc4c3)CC2)c1
923 | Cn1ncc2cc(CN3CCC(OCc4cccc(C(F)(F)F)c4)CC3)ccc21
557 | Fc1cc(COC2CCN(Cc3cc4ccc(Cl)cc4[nH]3)CC2)ccc1Cl

Target: T3, D(4) dopamine receptor (Homo sapiens, UniProt P21917)
T3 sequence (P21917 whole entry): T1 sequence (whole entry)
Assay: Displacement of [3H]N-methylspiperone from human D4 receptor expressed in HEK293 cell membrane by competitive inhibition based analysis
Assay type: cell membranes
Details: not given

IC50 [nM] | Ki [nM] | SMILES
437 | 441 | Cc1c(Cl)cccc1NC(=O)CN1CCC(OCc2ccc(Cl)c(F)c2)CC1
302 | 309 | Cc1nc(CN2CCC(OCc3cccc(C(F)(F)F)c3)CC2)c2ccccn12
1150 | 1160 | Cc1c(Cl)cccc1NC(=O)CN1CCC(OCc2cccc(C(F)(F)F)c2)CC1
1820 | 1800 | FC(F)(F)c1cccc(COC2CCN(Cc3ccc4[nH]cnc4c3)CC2)c1
200 | 200 | Cn1ncc2cc(CN3CCC(OCc4cccc(C(F)(F)F)c4)CC3)ccc21
324 | 323 | Fc1cc(COC2CCN(Cc3cc4ccc(Cl)cc4[nH]3)CC2)ccc1Cl

Target: D(1B) dopamine receptor (Homo sapiens, UniProt P21918)
Sequence (P21918 whole entry): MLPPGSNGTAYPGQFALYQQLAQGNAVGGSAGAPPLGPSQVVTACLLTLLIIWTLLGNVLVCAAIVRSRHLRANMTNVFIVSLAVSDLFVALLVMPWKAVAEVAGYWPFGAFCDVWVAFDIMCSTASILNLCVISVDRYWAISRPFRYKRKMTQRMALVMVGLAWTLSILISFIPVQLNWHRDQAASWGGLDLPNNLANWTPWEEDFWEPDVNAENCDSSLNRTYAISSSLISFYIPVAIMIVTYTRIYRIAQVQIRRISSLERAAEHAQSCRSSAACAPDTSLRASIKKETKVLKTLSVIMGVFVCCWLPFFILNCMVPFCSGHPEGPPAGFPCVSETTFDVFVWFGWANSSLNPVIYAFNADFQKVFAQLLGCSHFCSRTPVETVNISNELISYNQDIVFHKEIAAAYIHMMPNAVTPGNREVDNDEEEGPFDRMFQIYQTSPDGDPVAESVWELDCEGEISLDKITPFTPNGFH
Assay: Displacement of [3H]-SCH23390 from human D5 receptor expressed in HEK293 cell membrane at 10 uM by competitive inhibition based analysis
Assay type: cell membranes
Details: not given

inhibition [%] | SMILES
< 50 | Cc1nc(CN2CCC(OCc3cccc(C(F)(F)F)c3)CC2)c2ccccn12
< 50 | Fc1cccc(CO[C@H]2CCCN(Cc3ccc(Cl)cc3F)C2)c1
< 50 | Cc1ccccc1CN1CCC[C@H](OCc2cccc(F)c2)C1
< 50 | FC(F)(F)Oc1cccc(CO[C@H]2CCCN(Cc3ncc4ccccn34)C2)c1

More lines, now with the values behind:

SMILES | inhibition [%]
Cc1c(Cl)cccc1NC(=O)CN1CCC(OCc2ccc(Cl)c(F)c2)CC1 | < 50
Cc1ccccc1CO[C@H]1CCCN(Cc2ccc(Cl)c(Cl)c2)C1 | < 50
Cc1c(Cl)cccc1NC(=O)CN1CCC(OCc2cccc(C(F)(F)F)c2)CC1 | < 50
FC(F)(F)c1cccc(COC2CCN(Cc3ccc4[nH]cnc4c3)CC2)c1 | < 50
Cn1ncc2cc(CN3CCC(OCc4cccc(C(F)(F)F)c4)CC3)ccc21 | < 50
COc1ccc(CO[C@H]2CCCN(Cc3cccc(C)c3)C2)cc1F | < 50
Cc1ccc(CO[C@H]2CCCN(Cc3cccc(F)c3)C2)cc1 | < 50
Cc1ccccc1CO[C@H]1CCCN(Cc2ccc(Cl)cc2F)C1 | < 50

Same assay, conditions: filed as antagonist

inhibition [%] | SMILES
65 | Fc1cc(COC2CCN(Cc3cc4ccc(Cl)cc4[nH]3)CC2)ccc1Cl

Target: D(1A) dopamine receptor (Homo sapiens, UniProt P21728)
Sequence (P21728 whole entry): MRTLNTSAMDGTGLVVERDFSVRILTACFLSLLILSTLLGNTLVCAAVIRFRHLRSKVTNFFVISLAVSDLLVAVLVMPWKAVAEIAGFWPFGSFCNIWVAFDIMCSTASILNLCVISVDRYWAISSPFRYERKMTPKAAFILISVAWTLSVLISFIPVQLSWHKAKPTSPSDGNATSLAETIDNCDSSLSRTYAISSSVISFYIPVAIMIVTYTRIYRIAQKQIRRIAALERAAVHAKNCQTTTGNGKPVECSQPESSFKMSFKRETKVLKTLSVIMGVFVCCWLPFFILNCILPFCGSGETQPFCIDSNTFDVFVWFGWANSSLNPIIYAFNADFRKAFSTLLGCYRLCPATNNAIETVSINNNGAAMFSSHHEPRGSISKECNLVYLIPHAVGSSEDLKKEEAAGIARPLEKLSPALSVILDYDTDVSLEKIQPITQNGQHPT
Assay: Displacement of [3H]-SCH23390 from human D1 receptor expressed in HEK293 cell membrane at 10 uM by competitive inhibition based analysis
Assay type: cell membranes
Details: not given

inhibition [%] | SMILES
< 50 | Cc1nc(CN2CCC(OCc3cccc(C(F)(F)F)c3)CC2)c2ccccn12
< 50 | Fc1cccc(CO[C@H]2CCCN(Cc3ccc(Cl)cc3F)C2)c1
< 50 | Cc1ccccc1CN1CCC[C@H](OCc2cccc(F)c2)C1
< 50 | FC(F)(F)Oc1cccc(CO[C@H]2CCCN(Cc3ncc4ccccn34)C2)c1

More lines, now with the values behind:

SMILES | inhibition [%]
Cc1c(Cl)cccc1NC(=O)CN1CCC(OCc2ccc(Cl)c(F)c2)CC1 | < 50
Cc1ccccc1CO[C@H]1CCCN(Cc2ccc(Cl)c(Cl)c2)C1 | < 50
Cc1c(Cl)cccc1NC(=O)CN1CCC(OCc2cccc(C(F)(F)F)c2)CC1 | < 50
FC(F)(F)c1cccc(COC2CCN(Cc3ccc4[nH]cnc4c3)CC2)c1 | < 50
Cn1ncc2cc(CN3CCC(OCc4cccc(C(F)(F)F)c4)CC3)ccc21 | < 50
Fc1cc(COC2CCN(Cc3cc4ccc(Cl)cc4[nH]3)CC2)ccc1Cl | < 50
COc1ccc(CO[C@H]2CCCN(Cc3cccc(C)c3)C2)cc1F | < 50
Cc1ccc(CO[C@H]2CCCN(Cc3cccc(F)c3)C2)cc1 | < 50
Cc1ccccc1CO[C@H]1CCCN(Cc2ccc(Cl)cc2F)C1 | < 50

System: not listed separately
Assay: Protein binding in human plasma assessed as unbound fraction
Assay type: ADME, cell-free
Details: not given

Fu [%] | SMILES
5.2 | Cc1nc(CN2CCC(OCc3cccc(C(F)(F)F)c3)CC2)c2ccccn12
2.5 | FC(F)(F)c1cccc(COC2CCN(Cc3ccc4[nH]cnc4c3)CC2)c1
1 | Cn1ncc2cc(CN3CCC(OCc4cccc(C(F)(F)F)c4)CC3)ccc21

Target: T2, D(3) dopamine receptor
Assay: Displacement of [3H]N-methylspiperone from human D3 receptor expressed in HEK293 cell membrane at 10 uM by competitive inhibition based analysis
Assay type: cell membranes
Details: not given

inhibition [%] | SMILES
< 50 | Cc1nc(CN2CCC(OCc3cccc(C(F)(F)F)c3)CC2)c2ccccn12
< 50 | Fc1cccc(CO[C@H]2CCCN(Cc3ccc(Cl)cc3F)C2)c1
< 50 | Cc1ccccc1CN1CCC[C@H](OCc2cccc(F)c2)C1
< 50 | FC(F)(F)Oc1cccc(CO[C@H]2CCCN(Cc3ncc4ccccn34)C2)c1

Second part, the molecule before the results:

SMILES | inhibition [%]
Cc1ccccc1CO[C@H]1CCCN(Cc2ccc(Cl)c(Cl)c2)C1 | < 50
COc1ccc(CO[C@H]2CCCN(Cc3cccc(C)c3)C2)cc1F | < 50
Cc1ccc(CO[C@H]2CCCN(Cc3cccc(F)c3)C2)cc1 | < 50
Cc1ccccc1CO[C@H]1CCCN(Cc2ccc(Cl)cc2F)C1 | < 50

Same assay, conditions: filed as antagonist

inhibition [%] | SMILES
76.2 | Cc1c(Cl)cccc1NC(=O)CN1CCC(OCc2ccc(Cl)c(F)c2)CC1
84 | Cc1c(Cl)cccc1NC(=O)CN1CCC(OCc2cccc(C(F)(F)F)c2)CC1
83 | FC(F)(F)c1cccc(COC2CCN(Cc3ccc4[nH]cnc4c3)CC2)c1
92 | Cn1ncc2cc(CN3CCC(OCc4cccc(C(F)(F)F)c4)CC3)ccc21
76 | Fc1cc(COC2CCN(Cc3cc4ccc(Cl)cc4[nH]3)CC2)ccc1Cl

Target: D(2) dopamine receptor (Homo sapiens) (UniProt P14416)
Sequence (P14416 whole entry): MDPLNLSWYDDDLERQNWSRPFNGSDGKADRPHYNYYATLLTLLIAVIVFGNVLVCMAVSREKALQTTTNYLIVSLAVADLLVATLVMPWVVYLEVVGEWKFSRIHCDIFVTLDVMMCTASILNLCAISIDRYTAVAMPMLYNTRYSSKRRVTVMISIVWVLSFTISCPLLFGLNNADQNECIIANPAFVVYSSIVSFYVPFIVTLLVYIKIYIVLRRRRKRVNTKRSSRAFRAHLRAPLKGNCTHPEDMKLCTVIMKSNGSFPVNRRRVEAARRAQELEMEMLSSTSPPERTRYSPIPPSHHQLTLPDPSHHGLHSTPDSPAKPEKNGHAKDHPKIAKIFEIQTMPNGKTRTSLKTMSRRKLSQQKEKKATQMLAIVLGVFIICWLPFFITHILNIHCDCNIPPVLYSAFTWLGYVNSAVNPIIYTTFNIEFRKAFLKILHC
Assay: Displacement of [3H]N-methylspiperone from human D2 receptor expressed in HEK293 cell membrane at 10 uM by competitive inhibition based analysis
Assay type: cell membranes
Details: not given

inhibition [%] | SMILES
< 50 | Cc1nc(CN2CCC(OCc3cccc(C(F)(F)F)c3)CC2)c2ccccn12
< 50 | Fc1cccc(CO[C@H]2CCCN(Cc3ccc(Cl)cc3F)C2)c1
< 50 | Cc1ccccc1CN1CCC[C@H](OCc2cccc(F)c2)C1
< 50 | FC(F)(F)Oc1cccc(CO[C@H]2CCCN(Cc3ncc4ccccn34)C2)c1

The next lines start with the molecule.

SMILES | inhibition [%]
Cc1c(Cl)cccc1NC(=O)CN1CCC(OCc2ccc(Cl)c(F)c2)CC1 | < 50
Cc1ccccc1CO[C@H]1CCCN(Cc2ccc(Cl)c(Cl)c2)C1 | < 50
Cc1c(Cl)cccc1NC(=O)CN1CCC(OCc2cccc(C(F)(F)F)c2)CC1 | < 50
FC(F)(F)c1cccc(COC2CCN(Cc3ccc4[nH]cnc4c3)CC2)c1 | < 50
Cn1ncc2cc(CN3CCC(OCc4cccc(C(F)(F)F)c4)CC3)ccc21 | < 50
Fc1cc(COC2CCN(Cc3cc4ccc(Cl)cc4[nH]3)CC2)ccc1Cl | < 50
COc1ccc(CO[C@H]2CCCN(Cc3cccc(C)c3)C2)cc1F | < 50
Cc1ccc(CO[C@H]2CCCN(Cc3cccc(F)c3)C2)cc1 | < 50
Cc1ccccc1CO[C@H]1CCCN(Cc2ccc(Cl)cc2F)C1 | < 50
